Series [1] addresses T1, Protein tyrosine phosphatase type IVA 3 (Homo sapiens, UniProt O75365). The experiment in a line: Inhibition of PRL3 in human DLD1 cells assessed as increase in phospho-KRT8 level at 10 to 20 uM by immunoblot analysis. It counts as cell-based. Particulars: DLD-1. In general terms: In western blotting, separated proteins are transferred to a membrane and probed.
Series [2] concerns the target T1, Protein tyrosine phosphatase type IVA 3. In words: Inhibition of PRL3 in human DLD1 cells assessed as increase in phospho-ezrin level at 20 uM by immunoblot analysis relative to control. Particulars: DLD-1. The format is cell-based.
Series [3] concerns DLD-1. In words: Antimigratory activity against human DLD1 cells overexpressing PRL3 at 20 uM after 20 hrs by crystal violet staining-based light microscopic analysis relative to control. The format is functional. Particulars: DLD-1, 20 h.
Series [4] addresses T1, Protein tyrosine phosphatase type IVA 3. In words: Inhibition of His6-tagged full length human PRL3 using DiFMUP as substrate at 5 uM relative to control.
Series [5] concerns A375P. The experiment in a line: Antimigratory activity against human A375P cells overexpressing PRL3 at 10 to 20 uM after 20 hrs by crystal violet staining-based light microscopic analysis. It counts as functional, cell-based.
Series [6] deals with T2, Dual specificity protein phosphatase 22 (Homo sapiens) (UniProt Q9NRW4).
T2 sequence (whole entry): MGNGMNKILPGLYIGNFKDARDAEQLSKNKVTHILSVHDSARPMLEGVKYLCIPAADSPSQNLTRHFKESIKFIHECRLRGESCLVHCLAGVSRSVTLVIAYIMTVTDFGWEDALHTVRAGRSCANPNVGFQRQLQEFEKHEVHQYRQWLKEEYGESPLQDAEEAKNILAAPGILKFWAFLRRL
The experiment in a line: Inhibition of DUSP22 (unknown origin) using DiFMUP as substrate at 5 uM relative to control.

For series [7], the system named is DLD-1. In words: Antiinvasive activity against human DLD1 cells overexpressing PRL3 at 20 uM after 20 hrs by crystal violet staining-based light microscopic analysis relative to control. It counts as functional. Particulars: DLD-1, 20 h.
The target in series [8] is T1, Protein tyrosine phosphatase type IVA 3. In words: Inhibition of human His6-tagged full length PRL3 assessed as inhibition of DiFMUP dephosphorylation.
Series [9] has as its system DLD-1. The experiment in a line: Antimigratory activity against human DLD1 cells overexpressing PRL3 at 10 uM after 20 hrs by crystal violet staining-based light microscopic analysis. It counts as functional, cell-based.
The species entered for series [10] is Homo sapiens. The experiment in a line: Inhibition of PP2A (unknown origin) using DiFMUP as substrate at 5 uM relative to control.
The test system of series [11] is ASPC1. The experiment in a line: Antimigratory activity against human AsPC1 cells overexpressing PRL3 at 10 to 20 uM after 20 hrs by crystal violet staining-based light microscopic analysis. The format is functional, cell-based.
Series [12] deals with T1, Protein tyrosine phosphatase type IVA 3. In words: Inhibition of human His6-tagged full length PRL3 assessed as inhibition of DiFMUP dephosphorylation at 5 ug/ml relative to control.
In series [13] the target is T3, Dual specificity protein phosphatase 10 (Homo sapiens) (UniProt Q9Y6W6).
T3 sequence (whole entry): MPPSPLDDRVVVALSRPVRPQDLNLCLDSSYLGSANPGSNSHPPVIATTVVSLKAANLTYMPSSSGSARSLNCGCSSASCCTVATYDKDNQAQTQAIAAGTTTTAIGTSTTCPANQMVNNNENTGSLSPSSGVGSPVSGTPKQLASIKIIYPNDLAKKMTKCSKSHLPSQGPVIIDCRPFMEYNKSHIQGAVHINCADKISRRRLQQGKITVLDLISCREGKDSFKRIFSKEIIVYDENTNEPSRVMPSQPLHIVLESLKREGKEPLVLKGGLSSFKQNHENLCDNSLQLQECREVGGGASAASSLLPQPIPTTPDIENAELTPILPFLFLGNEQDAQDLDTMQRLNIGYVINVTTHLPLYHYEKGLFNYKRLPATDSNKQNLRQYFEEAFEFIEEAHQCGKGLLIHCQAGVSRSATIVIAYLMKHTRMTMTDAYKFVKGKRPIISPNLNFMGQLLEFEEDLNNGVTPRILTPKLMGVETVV
In words: Inhibition of MKP5 (unknown origin) using DiFMUP as substrate at 5 uM relative to control.

In series [14] the target is Dual specificity protein phosphatase 3 (Homo sapiens) (UniProt P51452). In words: Inhibition of VHR (unknown origin) using DiFMUP as substrate at 5 uM relative to control.
Chain of Dual specificity protein phosphatase 3 (Homo sapiens) (P51452 whole entry, looked up): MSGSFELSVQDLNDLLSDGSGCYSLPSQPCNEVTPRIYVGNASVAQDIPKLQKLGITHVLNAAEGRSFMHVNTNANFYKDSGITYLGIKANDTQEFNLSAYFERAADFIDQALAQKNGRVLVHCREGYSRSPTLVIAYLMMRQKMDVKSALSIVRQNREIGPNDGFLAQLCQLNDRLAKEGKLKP
The target of series [15] is T4, Tyrosine-protein phosphatase non-receptor type 1 (Homo sapiens) (UniProt P18031).
T4 sequence (whole entry): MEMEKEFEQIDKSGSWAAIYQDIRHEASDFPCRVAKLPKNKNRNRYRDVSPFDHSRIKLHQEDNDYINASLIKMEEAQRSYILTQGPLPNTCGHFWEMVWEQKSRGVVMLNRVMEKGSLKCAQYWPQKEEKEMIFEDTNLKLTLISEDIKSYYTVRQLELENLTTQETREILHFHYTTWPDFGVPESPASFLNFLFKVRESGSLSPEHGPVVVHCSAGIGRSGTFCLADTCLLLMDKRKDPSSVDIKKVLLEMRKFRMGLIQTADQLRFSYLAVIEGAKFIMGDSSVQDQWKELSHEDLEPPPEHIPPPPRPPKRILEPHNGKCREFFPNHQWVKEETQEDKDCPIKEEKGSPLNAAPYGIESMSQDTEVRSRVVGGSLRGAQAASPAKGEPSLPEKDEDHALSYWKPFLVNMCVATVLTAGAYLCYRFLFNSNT
The experiment in a line: Inhibition of PTP1B (unknown origin) using DiFMUP as substrate at 5 uM relative to control.

In series [16] the test system is DLD-1. The experiment in a line: Cytotoxicity against human DLD1 cells overexpressing PRL3 assessed as growth inhibition at 50 uM after 24 hrs by WST-1 assay. It counts as cell-based. The conditions noted are these: dld-1, 24 h. A general note: Tetrazolium assays rely on reduction of a dye to a coloured formazan, in cell work by metabolically active cells.
The subject of series [17] is MDA-MB-231. In words: Antimigratory activity against human MDA-MB-231 cells expressing low level of PRL3 at 10 to 20 uM after 20 hrs by crystal violet staining-based light microscopic analysis. The format is functional, cell-based.
In series [18] the test system is DLD-1. The experiment in a line: Antiinvasive activity against human DLD1 cells overexpressing PRL3 assessed as decrease in snail expression at […] after 24 hrs by immunoblot analysis. It counts as functional, cell-based.
Series [19] concerns the target Tyrosine-protein phosphatase YopH (Yersinia enterocolitica) (UniProt P15273). In words: Inhibition of yopH (unknown origin) using DiFMUP as substrate at 5 uM relative to control.
The test system of series [20] is DLD-1. In words: Antiinvasive activity against human DLD1 cells overexpressing PRL3 assessed as increase in E-cadherin expression at 10 to 50 uM after 24 hrs by immunoblot analysis. It counts as functional, cell-based.

The source made the active and inactive calls. No cut-off for these calls is given here.

T1 sequence (O75365 whole entry): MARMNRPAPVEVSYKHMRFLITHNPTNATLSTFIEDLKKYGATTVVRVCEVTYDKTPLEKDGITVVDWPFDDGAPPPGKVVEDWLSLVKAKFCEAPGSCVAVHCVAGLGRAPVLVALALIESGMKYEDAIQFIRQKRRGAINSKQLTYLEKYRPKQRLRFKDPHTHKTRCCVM

In general, inhibition refers to how much of the control response was suppressed. One may read the IC50 as the concentration needed to halve the response being measured. For `COc1ccccc1COc1ccccc1/C=C/C=C1\SC(=S)NC1=O`, in series [1], the inhibition entry is “Active”. Further, in series [2], the fold change (FC) is greater than 3. For the same compound, the inhibition at 20 µM in series [3] was greater than 90%; in series [7], greater than 60%. Further, the inhibition in [4] is 73%; in series [6], 10%; in series [8], “Dose-dependent effect”; in series [10], 29%; in [12] it was 78.8%; in series [13], 1%. The inhibition in series [14] worked out at 3%; in series [15], 8%; in series [19] it was 9%. Besides, the outcome in [5], in series [9], in [11], in series [18] and in series [20] was Active. The half-maximal inhibitory concentration (IC50) in series [8] is 800 nM. Further, in series [16], the Activity result was “Non-toxic”. In addition, the result in series [17] was inactive.
With `O=C1NC(=S)S/C1=C\c1cc(Br)ccc1OCc1ccccc1Br`, the inhibition at 20 µM was greater than 90% in series [3] and greater than 60% in series [7]. Besides, the result in series [5], in series [9] and in series [11] was Active. In addition, the inhibition in [6] is 30%; in series [10], 0%; in series [13], 5%; in series [14] it was 7%; in series [15], 11%; in series [19], 14%. In addition, the Activity result in [16] is on record as “Non-toxic”. Also, the outcome in series [17] was inactive.

Source of the values: ChEMBL document CHEMBL2396625 (Bioorg Med Chem Lett, 2013).
